Results on 15 compounds are retold here after ChEMBL document CHEMBL4699440, “Comprehensive review on the anti-bacterial activity of 1,2,3-triazole hybrids” (Eur J Med Chem, 2019).

The structures appear in SMILES notation. In brackets after ≈: the same amount, converted by molar mass.

What all share (assay type): functional
Experiment [1] concerns Escherichia coli. In words: Antibacterial activity against Escherichia coli MTCC […] by serial dilution method.
Experiment [2] concerns Bacillus subtilis. In words: Antibacterial activity against Bacillus subtilis MTCC 441 by serial dilution method.
In experiment [3] the test system is Staphylococcus epidermidis. The experiment in a line: Antibacterial activity against Staphylococcus epidermidis MTCC 6880 by serial dilution method.
In experiment [4] the test system is Aspergillus niger. In words: Antibacterial activity against Aspergillus niger MTCC 8189 by serial dilution method.
For experiment [5], the system named is Pseudomonas aeruginosa. In words: Antibacterial activity against Pseudomonas aeruginosa MTCC 424 by serial dilution method.
In experiment [6] the test system is Candida albicans. In words: Antibacterial activity against Candida albicans MTCC 227 by serial dilution method.
The test system of experiment [7] is Bacillus subtilis. The experiment in a line: Antibacterial activity against Bacillus subtilis ATCC 6051 incubated for 24 hrs by broth microdilution method. For orientation: In broth dilution the organism is exposed to a series of concentrations in liquid medium.
Experiment [8] concerns Escherichia coli. In words: Antibacterial activity against Escherichia coli ATCC 25922 incubated for 24 hrs by broth microdilution method.
The subject of experiment [9] is Pseudomonas aeruginosa. In words: Antibacterial activity against Pseudomonas aeruginosa ATCC 25619 incubated for 24 hrs by broth microdilution method.
Experiment [10] has as its system Staphylococcus aureus. The experiment in a line: Antibacterial activity against Staphylococcus aureus ATCC 12598 incubated for 24 hrs by broth microdilution method.
In experiment [11] the test system is Candida albicans. The experiment in a line: Antifungal activity against Candida albicans ATCC 2091 incubated for 24 hrs by broth microdilution method.
The test system of experiment [12] is Aspergillus niger. The experiment in a line: Antibacterial activity against Aspergillus niger ATCC 9029 incubated for 24 hrs by broth microdilution method.

Turning to `Cc1cc(O)c(C(=O)/C=C/c2ccc(OCc3cn(Cc4ccc([N+](=O)[O-])cc4)nn3)cc2)c(=O)o1`, the minimal inhibitory concentration (MIC) in experiment [1], in experiment [2], in experiment [3], in experiment [4], in experiment [5] and in [6] was 3 µM (≈ 1.47 µg/mL) each time.
Turning to `Cc1cccc(Cn2cc(COc3ccc(/C=C/C(=O)c4c(O)cc(C)oc4=O)cc3)nn2)c1`, the MIC in experiment [1], in [2], in [3], in experiment [4], in experiment [5] and in [6] was 3 µM (≈ 1.37 µg/mL) in each case.
As for `COc1ccc2oc(=O)cc(Cn3nnc(N)c3C#N)c2c1`, the MIC (in general, the lowest concentration that inhibits growth of the organism) in [7] worked out at 25 µg/mL (≈ 84.1 µM); in experiment [8], 0.2 µg/mL (≈ 0.673 µM); in [9] it was 25 µg/mL (≈ 84.1 µM); in experiment [10], 0.2 µg/mL (≈ 0.673 µM); in [11], 0.2 µg/mL (≈ 0.673 µM); in experiment [12], 0.2 µg/mL (≈ 0.673 µM).
For `Cc1cc(O)c(C(=O)/C=C/c2ccc(OCc3cn(Cc4ccccc4Br)nn3)cc2)c(=O)o1`, the MIC in [1], in [2], in [3], in [4], in experiment [5] and in experiment [6] was 3 µM (≈ 1.57 µg/mL) throughout.
For `Cc1ccc2oc(=O)cc(Cn3nnc(C)c3C(=O)O)c2c1`, the MIC in [7] came out at 25 µg/mL (≈ 83.5 µM); in experiment [8], 0.4 µg/mL (≈ 1.34 µM); in experiment [9], 25 µg/mL (≈ 83.5 µM); in experiment [10], 0.2 µg/mL (≈ 0.668 µM); in experiment [11], 0.2 µg/mL (≈ 0.668 µM); in experiment [12], 0.2 µg/mL (≈ 0.668 µM).
In the case of `CN[C@@H]1[C@H](O[C@H]2[C@H](O[C@H]3[C@H](O)[C@@H](O)[C@H](N=C(N)N)[C@@H](O)[C@@H]3N=C(N)N)O[C@@H](C)[C@]2(O)C=O)O[C@@H](CO)[C@H](O)[C@H]1O` [STREPTOMYCIN], the MIC in [7] was found to be 2 µg/mL (≈ 3.44 µM); in [8], 2 µg/mL (≈ 3.44 µM); in experiment [9], 4 µg/mL (≈ 6.88 µM); in experiment [10], 2 µg/mL (≈ 3.44 µM).
`COc1ccc(-n2cc(COc3ccc(/C=C/C(=O)c4c(O)cc(C)oc4=O)cc3)nn2)cc1`: the MIC in experiment [1], in [2], in experiment [3], in experiment [4], in experiment [5] and in experiment [6] was 3.4 µM (≈ 1.56 µg/mL) each time.
In the case of `Cc1ccc(Cn2cc(COc3ccc(/C=C/C(=O)c4c(O)cc(C)oc4=O)cc3)nn2)cc1`, the MIC in [1], in experiment [2], in experiment [3], in experiment [4], in [5] and in experiment [6] was 3 µM (≈ 1.37 µg/mL) each time.
With `COc1ccc2oc(=O)cc(Cn3nnc(C)c3C(=O)O)c2c1`, the MIC amounted to 25 µg/mL (≈ 79.3 µM) in experiment [7]; 0.2 µg/mL (≈ 0.634 µM) in [8]; 25 µg/mL (≈ 79.3 µM) in [9]; 0.2 µg/mL (≈ 0.634 µM) in experiment [10]; 0.2 µg/mL (≈ 0.634 µM) in experiment [11]; 0.2 µg/mL (≈ 0.634 µM) in experiment [12].
On to `N#Cc1c(N)nnn1Cc1cc(=O)oc2ccc3c(c12)OCO3`, for which the MIC amounted to 25 µg/mL (≈ 80.3 µM) in experiment [7]; 0.2 µg/mL (≈ 0.643 µM) in [8]; 25 µg/mL (≈ 80.3 µM) in experiment [9]; 0.2 µg/mL (≈ 0.643 µM) in [10]; 0.2 µg/mL (≈ 0.643 µM) in [11]; 0.2 µg/mL (≈ 0.643 µM) in experiment [12].
`Cc1cc(O)c(C(=O)/C=C/c2ccc(OCc3cn(Cc4cccc(F)c4)nn3)cc2)c(=O)o1`: the MIC in experiment [1], in experiment [2], in experiment [3], in [4], in [5] and in [6] was 3 µM (≈ 1.38 µg/mL) in each case.
On to `N#Cc1c(N)nnn1Cc1cc(=O)oc2c3c(ccc12)OCO3`, for which the MIC in experiment [7] amounted to 25 µg/mL (≈ 80.3 µM); in experiment [8], 0.2 µg/mL (≈ 0.643 µM); in experiment [9], 25 µg/mL (≈ 80.3 µM); in experiment [10], 0.2 µg/mL (≈ 0.643 µM); in [11], 0.2 µg/mL (≈ 0.643 µM); in experiment [12], 0.2 µg/mL (≈ 0.643 µM).
Regarding `Cc1cc(O)c(C(=O)/C=C/c2ccc(OCc3cn(Cc4cccc(Br)c4)nn3)cc2)c(=O)o1`, the MIC in experiment [1], in experiment [2], in [3], in [4], in experiment [5] and in experiment [6] was 3 µM (≈ 1.57 µg/mL) throughout.
On to `Cc1nnn(Cc2cc(=O)oc3c4c(ccc23)OCO4)c1C(=O)O`, for which the MIC in experiment [7] was found to be 25 µg/mL (≈ 75.9 µM); in [8], 0.2 µg/mL (≈ 0.607 µM); in [9] it was 25 µg/mL (≈ 75.9 µM); in experiment [10], 0.2 µg/mL (≈ 0.607 µM); in experiment [11], 0.2 µg/mL (≈ 0.607 µM); in [12], 0.2 µg/mL (≈ 0.607 µM).
Take `Cc1nnn(Cc2cc(=O)oc3ccc4c(c23)OCO4)c1C(=O)O`: the MIC in experiment [7] is 25 µg/mL (≈ 75.9 µM); in experiment [8], 0.2 µg/mL (≈ 0.607 µM); in experiment [9] it was 25 µg/mL (≈ 75.9 µM); in experiment [10], 0.2 µg/mL (≈ 0.607 µM); in [11] it was 0.2 µg/mL (≈ 0.607 µM); in experiment [12] it was 0.2 µg/mL (≈ 0.607 µM).
